Biological target: T1, Cyclophilin D (CypD; rhCypD) (Homo sapiens, UniProt P30405)
T1 construct: gene PPIF; amino acids 44 to 207 of full length human CypD, C-terminal His-tag
Experiment: HTRF/TR-FRET displacement of CsA-d2 from His-tagged rhCypD; also inhibits PPIase activity (IC50 […])
Assay type: binding

T1 sequence (P30405 44-207): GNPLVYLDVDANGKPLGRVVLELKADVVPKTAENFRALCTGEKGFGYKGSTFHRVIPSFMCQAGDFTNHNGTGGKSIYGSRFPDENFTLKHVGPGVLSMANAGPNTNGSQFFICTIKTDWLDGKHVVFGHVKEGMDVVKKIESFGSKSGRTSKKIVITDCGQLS

SMILES: CC[C@H]1C[C@H](C)[C@@]2(NC1=O)O[C@@H](C[C@H](O)[C@@H](C)CC/C=C/C=C(\C)[C@@H]1C/C=C/C=C/[C@H](O)[C@H](C)[C@@H](O)[C@@H](CCC(C)=O)C(=O)N[C@@H](C(C)C)C(=O)N[C@@H](Cc3cccc(O)c3)C(=O)N3CCC[C@H](N3)C(=O)O1)[C@H](C)[C@H](O)[C@@H]2C [SfA, sanglifehrin A]
- IC50: 5 nM

From publication PMC5122887, “Identification of ER-000444793, a Cyclophilin D-independent inhibitor of mitochondrial permeability transition, using a high-throughput screen in cryopreserved mitochondria” (Scientific Reports, 2016)
